Consider one molecule from patent US9447083B2, “N-acylhydrazone derivatives for selective T cell inhibitor and anti-lymphoid malignancy drug” (CHONG KUN DANG PHARMACEUTICAL CORP., priority 2012, dated 2016).

“And” between values parts separate entries of the source, which are not always exact repeats. Equal values may be shown once.

In one test the test system is KMS12BM. The test is described as follows: Apoptosis of lymphoid malignancy cell lines: KMS12BM. It counts as cell-based. The settings on record: Homo sapiens, KMS-12-BM, Multiple myeloma, 24 hours, read-out: Administration Dose (mean ± SD, μmol/L) Lethal Dose 50 (Apoptosis). How it is done: (§1) Each of the acute T cell leukemia cell lines Jurkat, Molt4 and CCRF-CEM, the acute B cell leukemia cell line Raji and the […] cell lines KMS11, KMS12BM, KMS26, KMS28BM, and IM9 was re-suspended in 10% FBS-containing RPMI medium at a concentration of 1.5×10^5 cells/mL, and 200 μL of each of the cell suspensions was cultured in a flat bottom 96-well plate (Costar). The acute NK cell lymphoma cell line NK-92MI was re-suspended in α-MEM medium (supplemented with 20% FBS, 1×MEM vitamine solution, 50 μM 2-mercaptoethanol and 1× penicillin/streptomycin) at a concentration of 1.5×10^5 cells/mL, and 200 μL of the cell suspension was cultured in a flat bottom 96-well plate. The cells in each well was treated with 10 μL of each of 0.1, 0.25, 0.5, 0.75 and 1 μM of the compound diluted with RPMI medium, followed by that the cells were incubated in a 5% CO2 incubator at 37° C. for 24 hours. […]
(§2) The cells were collected, and then the apoptosis thereof was analyzed by a flow cytometer after staining with Annexin V-7-AAD. The incubated cells were collected, placed in a 5-mL FACS tube (BD Falcon) and washed with 1 mL of fluorescence activated cell sorting (FACS) buffer (1%. FBS and 0.1% sodium azaide in PBS). […] The stained cells were suspended in 0.3 mL of FACS buffer, and then analyzed by a flow cytometer. […]

The next test deals with KMS28BM. The experiment in a line: Apoptosis of lymphoid malignancy cell lines: KMS28BM. The note with it: KMS-28BM, Multiple myeloma, 24 hours, read-out: Administration Dose (mean ± SD, μmol/L) Lethal Dose 50 (Apoptosis). The test is classed as cell-based. Here is the method: as §1, §2
For test [1], the system named is acute graft-versus-host disease. The test is described as follows: Acute graft-versus-host disease, mouse model of allogeneic bone marrow transplantation. The test is classed as in vivo. The settings on record: 25 mg/kg intraperitoneally daily for 10 days. The text has this: Lymph nodes, spleens, both femurs and tibias were aseptically collected from normal C57BL/6 mice (8-12 week old, female, 20-23 g), and T cells were isolated from the lymph nodes and spleens in the same manner as described in Experimental Example 2 and were re-suspended in PBS at a concentration of 8×10^7 cells/mL. The femurs and tibias were cut at the ends, and the bone marrow was flushed from femurs and tibias with RPMI medium using a syringe (21G for femur and 26G for tibia) to extract the marrow, which was then suspended and passed through a cell strainer to make a single cell suspension. The bone marrow cell suspension was centrifuged at 1200 rpm for 5 minutes, and the supernatant was removed, then the cells were added to 1 mL of ACK lysis buffer and vortexed for 1 minute, followed by washing with RPMI medium. […] The incubated cell suspension was added with 5 mL of MACS buffer, centrifuged for 5 minutes, washed, and then re-suspended in 2 mL of MACS buffer. The suspended cells were placed in the autoMACS Pro Separator, and T cells bound to the CD90.2 microbeads were removed. The separated T cell-depleted bone marrow cells (TCD-BM) were washed with PBS and re-suspended in PBS at a concentration of 1×10^8 cells/mL. Normal BDF1 mice (10-12 week old, female, 20-23 g) were irradiated with 850 rad of γ radiation using an irradiator, and then 100 μL of a graft obtained by mixing the C57BL/6 mouse T cells and the TCD-BM at a ratio of 1:1 was injected into the tail vein of the BDF1 mice. In a group treated with compound 229 of the present invention, compound 229 was completely dissolved in a Cremophor EL-ethanol mixture (1:1, v/v) in an amount corresponding to 15% (v/v) of the administration volume, after which the compound solution was diluted in PBS, and the dilution was administered intraperitoneally to each mouse at a dose of 25 mg/kg daily for 10 days from the day of the graft injection. Meanwhile, Tacrolimus that is a currently clinically used immunosuppressive agent was administered to mice of another group in the same amount as compound 229 in order to compare the inhibitory effect on acute graft-versus-host disease, and mice of a vehicle control group were administered with 200 μL of a Cremophor EL-ethanol-PBS (7.5:7.5:85, v/v/v) in the same manner as the treated groups. Then, the survival of mice was monitored daily, and the severity of GVHD was assessed twice a week with clinical GVHD scoring system for each a decrease in weight loss, hunched posture, decreased activity, fur ruffling and skin lesions. Each parameters were scored on a 3-point (0 to 2) scale.

`Cc1cc(C)c(OCC(=O)N/N=C/c2ccc3cc[nH]c3c2)c(C2CCOC2)c1` (centres unmarked) [Compound 229, (E)-N′-((1H-indol-6-yl)methylene)-2-(2,4-dimethyl-6-(tetrahydrofuran-3-yl)phenoxy)acetohydrazide]: the results for the EC50 with KMS12BM and in the test with KMS28BM were 0.94 ± 0.09 µmol/L and 0.49 ± 0.08 µmol/L, respectively. Besides, the “severity of GVHD (clinical scoring system)” value in test [1] is “slight symptoms of GVHD”. In test [1] (final (day 70), vehicle 10%), the survival rate amounted to 80%. In addition, the “mouse death, days after cell transplantation” value in test [1] (vehicle from 29 days) was 35 days and 46 days.
